Assay: RAL depletion by compounds in rod outer segment preparation
Assay type: biochemical, bovine
Conditions: rod outer segment preparation containing 64 μM opsin at 37° C.; for Kapp, apparent equilibrium constant of RAL depletion / kapp, apparent second order rate constant of RAL depletion: nominal starting drug 1.00 mM, RAL 60 μM; for ΔGapp, apparent free energy change of RAL depletion: ΔGapp=−RT ln Kapp
Description: The parameters associated with the RAL depletion chemistry are as follows:
[drawing 47] kapp: apparent second order rate constant of RAL depletion by drug. Kapp: apparent equilibrium constant of RAL depletion by drug.
[formula] ΔGapp: apparent free energy change of RAL depletion by drug. ΔGapp=−RT ln Kapp (2) Kring: equilibrium constant of tautomerism from imine to oxaminal (ring closed).
Frozen bovine rod outer segment preparation (64 μM of opsin) is thawed and vortexed thoroughly. A 200 μL aliquot of this sample is transferred into a 0.5 mL Eppendorf tube. To it is added 10 μL of 20 mM drug stock solution in EtOH, and the mixture is vortexed for 1 min. The tube is incubated at 37° C. in a Thermo Scientific microprocessor controlled 280 series water bath for 3 min before 5 μL freshly prepared 2.4 mM RAL solution in EtOH is added (the nominal starting concentrations of drug and RAL are 1.00 mM and 60 μM, respectively). After vortexing for 1 min, the tube is incubated at 37° C. over time. Aliquots of the reaction mixture (25 μL each) are taken periodically, and added onto 10 mg of solid NaBH4 in a 0.5 mL Eppendorf tube. To the latter is added carefully 400 μL of 2:1 (v/v) EtOH/HOAc. The reduction mixture is vortexed for 1 min and centrifuged. The supernatant is separated, and analyzed by HPLC using a standard HPLC method:
Solvent A: 0.05% HCOOH/95% HPLC grade water/5% HPLC grade MeCN
Solvent B: 0.05% HCOOH HPLC grade MeCN
Detector wavelengths: 329 and 250 nm
Reference wavelength: 400 nm
The RAL depletion percentages are calculated by normalization of ROL and Re-RAL-drug peak integrals, which are then plotted against reaction time. Least squares fit of the RAL depletion plot according to pseudo-first order kinetics yields observed first order rate constant kobsd, and kapp is calculated according to kobsd=kapp[drug]. Kapp is calculated from the equilibrium concentrations of free RAL, free drug and RAL-drug according to equation (1). ΔGapp was calculated according equation (2).

Row | SMILES | Kapp, apparent equilibrium constant of RAL depletion | kapp, apparent second order rate constant of RAL depletion | ΔGapp, apparent free energy change of RAL depletion [kcal/mol]
1 | Cc1ccc(-c2nc3cc(N)c(C(C)(C)O)c(Cl)c3o2)cc1 [Compound 2, 2-(5-amino-7-chloro-2-p-tolylbenzoxazol-6-yl)propan-2-ol] | 2.29×10^6 | 24,700 M^−1·h^−1 | -9.0
2 | CC(C)(O)c1c(N)cc2c(C3CC3)noc2c1Cl [Compound 5, 2-(5-amino-7-chloro-3-cyclopropylbenzisoxazol-6-yl)propan-2-ol] | >2 × 10^7 | 35,300 M^−1·h^−1 | <-10
3 | CC(C)(O)c1c(N)cc2nc(-c3ccccc3)oc2c1Cl [Compound 3, 2-(5-amino-7-chloro-2-phenylbenzoxazol-6-yl)propan-2-ol] | 7.14×10^6 | 21,600 M^−1·h^−1 | -9.7
4 | CC(C)(O)c1cc2oc(-c3ccccc3)nc2cc1N [reference compound] | 1.25 × 10^6 | 25,500 M^−1·h^−1 | -8.6
5 | CC(C)(O)c1nc2ccc(Cl)cc2cc1N [reference compound] | 1.55 × 10^5 | 3,570 M^−1·h^−1 | -7.4
6 | CC(C)(O)c1c(N)cc2onc(C3CC3)c2c1Cl [Compound 4, 2-(6-amino-4-chloro-3-cyclopropylbenzisoxazol-5-yl)propan-2-ol] | >2 × 10^7 | 31,700 M^−1·h^−1 | <-10
7 | CC(C)(O)c1c(N)cc(Cl)c2c(C3CC3)noc12 [Compound 6, 2-(6-amino-4-chloro-3-cyclopropylbenzisoxazol-7-yl)propan-2-ol] | 3.35×10^6 | 12,700 M^−1·h^−1 | -9.2
